{
  "source": "ChEMBL document CHEMBL2074045",
  "about": "“Up-regulation of P-glycoprotein expression in rat liver cells by acute doxorubicin treatment” (Eur J Biochem, 1997)",
  "key": {"[1]": {"target": "ATP-dependent translocase ABCB1 (Rattus norvegicus, UniProt P43245)", "sequence (P43245 whole entry)": "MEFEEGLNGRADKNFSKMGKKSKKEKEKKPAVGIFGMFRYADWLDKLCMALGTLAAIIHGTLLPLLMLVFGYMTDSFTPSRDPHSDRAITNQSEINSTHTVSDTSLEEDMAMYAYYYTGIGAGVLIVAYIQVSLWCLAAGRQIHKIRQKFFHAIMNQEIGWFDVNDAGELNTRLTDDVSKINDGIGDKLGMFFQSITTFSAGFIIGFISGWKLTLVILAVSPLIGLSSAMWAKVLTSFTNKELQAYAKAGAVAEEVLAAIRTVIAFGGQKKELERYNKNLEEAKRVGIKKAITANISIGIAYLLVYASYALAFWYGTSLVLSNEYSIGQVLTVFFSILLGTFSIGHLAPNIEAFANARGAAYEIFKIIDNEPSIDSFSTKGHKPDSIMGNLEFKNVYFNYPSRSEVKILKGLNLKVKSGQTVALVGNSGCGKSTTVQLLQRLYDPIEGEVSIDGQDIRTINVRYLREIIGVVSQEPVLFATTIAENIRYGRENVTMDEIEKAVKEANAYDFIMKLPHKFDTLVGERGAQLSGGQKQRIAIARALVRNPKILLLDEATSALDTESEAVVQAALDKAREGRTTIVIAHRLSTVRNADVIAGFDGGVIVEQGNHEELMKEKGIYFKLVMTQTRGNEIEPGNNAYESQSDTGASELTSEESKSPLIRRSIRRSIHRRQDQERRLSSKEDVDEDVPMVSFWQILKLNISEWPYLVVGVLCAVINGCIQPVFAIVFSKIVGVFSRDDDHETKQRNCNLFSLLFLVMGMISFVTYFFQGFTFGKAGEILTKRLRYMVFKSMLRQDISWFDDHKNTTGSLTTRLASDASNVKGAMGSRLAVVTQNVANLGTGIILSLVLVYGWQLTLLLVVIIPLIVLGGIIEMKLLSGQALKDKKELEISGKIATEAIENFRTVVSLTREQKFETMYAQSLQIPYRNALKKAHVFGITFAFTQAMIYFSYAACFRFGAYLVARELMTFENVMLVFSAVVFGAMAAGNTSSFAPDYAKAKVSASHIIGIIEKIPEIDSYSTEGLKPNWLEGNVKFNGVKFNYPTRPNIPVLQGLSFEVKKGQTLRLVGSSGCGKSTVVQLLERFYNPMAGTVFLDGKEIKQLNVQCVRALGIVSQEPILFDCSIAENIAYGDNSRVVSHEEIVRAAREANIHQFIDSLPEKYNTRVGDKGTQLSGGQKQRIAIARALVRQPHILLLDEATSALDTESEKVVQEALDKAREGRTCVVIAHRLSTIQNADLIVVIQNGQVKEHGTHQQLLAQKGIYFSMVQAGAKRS", "test": "TP_TRANSPORTER: Northern blot in vitro, nonparenchymal ral liver epithelial cells", "assay_type": "functional", "settings": "epithelial cell"}, "[2]": {"target": "Multidrug resistance protein 1a (Rattus norvegicus) (UniProt Q6PSM0)", "sequence (Q6PSM0 as listed by the source)": "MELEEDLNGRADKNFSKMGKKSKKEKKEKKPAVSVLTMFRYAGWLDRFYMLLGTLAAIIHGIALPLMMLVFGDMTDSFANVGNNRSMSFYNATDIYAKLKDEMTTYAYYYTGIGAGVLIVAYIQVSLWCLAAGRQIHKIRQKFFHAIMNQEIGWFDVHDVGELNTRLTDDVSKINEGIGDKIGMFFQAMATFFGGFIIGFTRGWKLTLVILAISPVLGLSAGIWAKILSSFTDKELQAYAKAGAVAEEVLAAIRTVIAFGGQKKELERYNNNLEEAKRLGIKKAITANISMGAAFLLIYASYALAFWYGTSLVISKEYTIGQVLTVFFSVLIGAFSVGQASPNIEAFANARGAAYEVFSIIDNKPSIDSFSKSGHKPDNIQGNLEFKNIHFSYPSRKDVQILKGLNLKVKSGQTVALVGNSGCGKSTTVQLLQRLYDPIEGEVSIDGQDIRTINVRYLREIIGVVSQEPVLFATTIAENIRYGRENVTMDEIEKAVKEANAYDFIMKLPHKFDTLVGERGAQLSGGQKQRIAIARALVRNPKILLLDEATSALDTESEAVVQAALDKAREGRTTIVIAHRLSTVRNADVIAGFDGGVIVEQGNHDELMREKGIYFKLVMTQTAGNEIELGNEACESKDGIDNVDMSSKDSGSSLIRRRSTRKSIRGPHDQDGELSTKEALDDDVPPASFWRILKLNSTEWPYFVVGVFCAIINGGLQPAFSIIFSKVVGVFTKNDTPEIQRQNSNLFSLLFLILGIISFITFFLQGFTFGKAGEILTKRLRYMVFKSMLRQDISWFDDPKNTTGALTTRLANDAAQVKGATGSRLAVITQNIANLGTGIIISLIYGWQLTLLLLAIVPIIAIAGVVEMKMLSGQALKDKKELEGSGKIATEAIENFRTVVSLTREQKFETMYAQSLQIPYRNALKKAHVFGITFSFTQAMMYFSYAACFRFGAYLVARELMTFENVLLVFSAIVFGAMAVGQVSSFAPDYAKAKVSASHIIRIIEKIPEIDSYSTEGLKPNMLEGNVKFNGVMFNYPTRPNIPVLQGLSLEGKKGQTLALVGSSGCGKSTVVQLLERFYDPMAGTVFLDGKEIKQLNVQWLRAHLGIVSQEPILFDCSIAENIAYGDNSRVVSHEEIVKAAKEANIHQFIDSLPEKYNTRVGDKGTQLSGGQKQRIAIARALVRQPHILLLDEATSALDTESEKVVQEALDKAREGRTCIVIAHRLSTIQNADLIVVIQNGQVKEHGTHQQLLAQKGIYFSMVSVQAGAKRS", "test": "TP_TRANSPORTER: Western in vitro, nonparenchymal ral liver epithelial cells", "assay_type": "functional, tissue-based", "settings": "Epithelial cell"}},
  "data": [
    {"compound": "COc1cccc2c1C(=O)c1c(O)c3c(c(O)c1C2=O)C[C@@](O)(C(=O)CO)C[C@@H]3O[C@H]1C[C@H](N)[C@H](O)[C@H](C)O1", "note": "[DOXORUBICIN]", "values": [
      {"measurement": "Activity", "setting": "[1]", "value": "inducer [+]"},
      {"measurement": "Activity", "setting": "[2]", "value": "inducer [+]"}
    ]}
  ]
}
